# Active and inactive are the calls of the source. The rule behind the calls is not given here.
# System: StAR promoter luciferase reporter cells, luminescence inhibition
# Assay: nonselective StAR promoter luciferase inhibitors – cell-based, luminescence, dose response, counter-screen for LRH-1 inverse agonist project, late-stage follow-up (AID 651975)
row,SMILES,IC50
1,O=C(COC(=O)CCN1C(=O)C2CC=CCC2C1=O)NCCc1ccc(F)cc1 (configuration not stated),> 35.9 µM (inactive)
2,O=C(NCc1ccco1)c1nn(-c2ccccc2)c(=O)c2ccccc12,> 35.9 µM (inactive)
3,O=C(CN1C(=O)CCC1=O)Nc1ccc(Br)cc1,> 35.9 µM (inactive)
4,COc1ccc(CCNC(=O)COC(=O)c2cccn2C)cc1,> 35.9 µM (inactive)
5,CC1SC(C)C(=O)N(CC(=O)Nc2ccc3c(c2)OCO3)C1=O (configuration not stated),> 35.9 µM (inactive)
6,COC(=O)c1ccc(NC(=O)CSc2ccc(-c3ccccn3)nn2)cc1,> 35.9 µM (inactive)
7,CCOc1ccc(NC(=O)CSc2nnc(C(C)C)n2CC)cc1,> 35.9 µM (inactive)
8,CCOc1ccc(NC(=O)CN2CCN(CC(=O)Nc3ccc(OC)cc3)CC2)cc1,> 35.9 µM (inactive)
9,Cc1cc(C)c2sc(NC(=O)c3ccc([N+](=O)[O-])o3)nc2c1,> 35.9 µM (inactive)
10,Cc1cccc(NC(=O)COC(=O)Cc2cccs2)c1C,> 35.9 µM (inactive)
11,O=C(COc1ccc2c3c(c(=O)oc2c1)CCCC3)NCc1ccccn1,> 35.9 µM (inactive)
12,N#CCSc1ccccc1NC(=O)CN1C(=O)C2CC=CCC2C1=O (configuration not stated),> 35.9 µM (inactive)
13,CCn1c(SCC(=O)Nc2ccc(Cl)cc2)nnc1C1CC1,> 35.9 µM (inactive)
14,O=C(COC(=O)c1ccc(=O)n(Cc2ccccc2)n1)Nc1ccc2c(c1)OCCO2,> 35.9 µM (inactive)
15,CCCc1cc(=O)oc2c(C)c(OCC(=O)NC3CC(C)(C)NC(C)(C)C3)ccc12,> 35.9 µM (inactive)
16,CCOc1ccc(OCCC(=O)OCC(=O)Nc2ccc3c(c2)OCCO3)cc1,> 35.9 µM (inactive)
17,Cc1nn(CC(=O)Nc2ccc3c(c2)OCCO3)c(C)c1[N+](=O)[O-],> 35.9 µM (inactive)
18,NC(=O)C1CCN(C(=O)COc2ccc3c4c(c(=O)oc3c2)CCCC4)CC1,> 35.9 µM (inactive)
19,Cc1cc(Br)ccc1NC(=O)CN1C(=O)C2CC=CCC2C1=O (configuration not stated),27.8 µM (inactive)
20,COc1ccc(CCNC(=O)CSc2nc3[nH]c(=O)cc(O)c3s2)cc1,> 35.9 µM (inactive)
21,CC(=O)c1ccc(NC(=O)C(C)O/N=C(\N)c2ccccc2)cc1 (configuration not stated),> 35.9 µM (inactive)
22,COc1ccc(NC(=O)CSc2ccc3c(c2)OCCO3)cc1,> 35.9 µM (inactive)
23,CCOc1ccc(NC(=O)CSc2nncc(=O)n2N)cc1,> 35.9 µM (inactive)
24,O=C(COC(=O)c1ccc(Br)cc1)Nc1ccccc1Br,> 35.9 µM (inactive)

row,SMILES,IC50
1,COc1ccc(NS(=O)(=O)c2ccc(OCC(=O)N3CCN(C)CC3)cc2)cc1Cl,> 35.9 µM (inactive)
2,O=C(CSc1nc(=O)n2cc(Cl)ccc2n1)Nc1ccc2c(c1)OCCO2,> 35.9 µM (inactive)
3,CC(=O)Nc1ccc(N=c2cc([N+](=O)[O-])cc(Cl)n2O)cc1,> 35.9 µM (inactive)
4,CC(=O)c1ccc(OC(C)C(=O)OCC(=O)NCCc2ccccc2)cc1 (configuration not stated),> 35.9 µM (inactive)
5,Cc1ccc2cccc(OCC(=O)NCCC3=CCCCC3)c2n1,> 35.9 µM (inactive)
6,COC(=O)c1ccc(NC(=O)CSc2nn3c(=O)c(C)nnc3s2)cc1,> 35.9 µM (inactive)
7,CCOc1ccc(NC(=O)COC(=O)c2ccc3c(c2)OCCO3)cc1,> 35.9 µM (inactive)
8,COc1ccc(NC(=O)COC(=O)c2c(-c3ccccc3)noc2C)cc1,33.9 µM (inactive)
9,CCCc1cc(=O)oc2cc(C)cc(OCC(=O)NC3CC3)c12,> 35.9 µM (inactive)
10,COCCn1c(C)cc(/C=C(\C#N)C(=O)OCC(=O)Nc2ccc(S(N)(=O)=O)cc2)c1C,> 35.9 µM (inactive)
11,COc1ccc(CCNC(=O)COC(=O)C23CC4CC(CC(C4)C2)C3)cc1,> 35.9 µM (inactive)
12,CCOc1ccc(NC(=O)CSc2nc3[nH]ncc3c(=O)[nH]2)cc1,> 35.9 µM (inactive)
13,O=C(COC(=O)c1ccc[n+]([O-])c1)Nc1ccc([N+](=O)[O-])cc1Cl,> 35.9 µM (inactive)
14,CCCc1nnc(SCC(=O)Nc2ccc(C(=O)OCC)cc2)o1,> 35.9 µM (inactive)
15,COc1ccc(NC(=O)CSc2nc(N)c(-c3ccccc3)c(=O)[nH]2)cc1,> 35.9 µM (inactive)
16,COc1ccc(-n2c(N)c(C(=O)NCc3cccnc3)sc2=S)cc1,> 35.9 µM (inactive)
17,COC(=O)c1ccc(CNC(=O)COC(=O)c2cc(Cl)nc(Cl)c2)cc1,> 35.9 µM (inactive)
18,O=C(CSc1nnc(CNC(=O)c2ccccc2F)o1)Nc1ccc2c(c1)OCCO2,> 35.9 µM (inactive)
19,Cc1ccc(NC(=O)COC(=O)c2cc(=O)c3ccccc3o2)c(Br)c1,> 35.9 µM (inactive)
20,O=C(CSc1nnc(CNC(=O)c2c(F)cccc2F)o1)Nc1ccc2c(c1)OCCO2,> 35.9 µM (inactive)
21,COc1ccc(CCNC(=O)CSc2nn3c(=O)c(C)nnc3s2)cc1OC,> 35.9 µM (inactive)
22,O=C(Nc1nc2c(Cl)cccc2s1)c1ccc([N+](=O)[O-])o1,> 35.9 µM (inactive)
23,CCOc1ccc(NC(=O)CSc2nccn(-c3ccc4c(c3)OCCO4)c2=O)cc1,> 35.9 µM (inactive)

# Reference: PubChem BioAssay AID651975 (The Scripps Research Institute Molecular Screening Center, 2013)
